Test: Human HepG2 cell viability assay in 384 well format
Format: toxicity, cell-based
Set-up: dose 125 nL, time 70.5 hour; cytotoxicity at 70.5 h: concentration not given beside the values
Conditions: HepG2 cells, read-out: Inhibition

Structure (SMILES) | cytotoxicity at 70.5 h [%]
COc1ccc(Cl)cc1S(=O)(=O)N1C[C@@H]2CC[C@H](C1)N(C)C2=O | 6.39
CCCn1nc(C)c(CNC(=O)c2snnc2C)c1C | -13.1
O=C(O)C1(n2ccc(-c3ccco3)n2)CCN(Cc2ccccn2)CC1 | -4.75
CCC(CC)n1nc(C)cc1NC(=O)C1CCOC1 (stereo not given) | -6.47
COc1ccccc1[C@@H]1CN(Cc2ccc3nsnc3c2)C[C@H]1C(=O)O | -5.24
N[C@@H]1c2ccccc2C2(CCN(C(=O)c3ccc(CO)o3)CC2)[C@H]1O | -5.57
Cc1nccn1Cc1nnc(C2CCN(c3ccncc3F)CC2)n1C | 17.7
O=C(O)C(c1ccc2c(c1)OCO2)N1CCCCCC1 (stereo not given) | -1.77
Cc1cc(NCc2cc3n(n2)CCCN(C(=O)C2CCC2)C3)ncn1 | 0.388
CN1CCN(CCCNCc2cc(O)c3cc(F)ccc3n2)CC1 | -4.99
COC(=O)CCCn1ccnc1-c1ccc(OC)c(F)c1F | 3.06
CCC(C)N(Cc1ccncc1)C(=O)CCSC (stereo not given) | -10.6
Cc1nc2c(C(=O)N[C@H]3C[C@H]4CN(C)CCN4C3)cccc2[nH]1 | -10.2
CN(CCCc1nccn1C)C(=O)C1CCN(C(=O)C2CCCC2)CC1 | 4.09
COc1cc2[nH]c(=O)c(CN3CCCC3C)cc2c(OC)c1OC (stereo not given) | -6.4
CC(C)c1nccn1Cc1cc(C(=O)NCC(F)(F)F)n[nH]1 | -9.18
COc1ccc(OCc2nccc(-c3cc(C(=O)O)ccn3)n2)cc1 | -2.16
COCCn1c(CN2CCCCO2)cnc1S(=O)(=O)CC1CCCCC1 | -2.46
Cc1cc(C)c2[nH]c(=O)c(CN3CCCC4(C3)CN(C)C(=O)O4)cc2c1 (stereo not given) | -8.68
CCC[C@H]1CN(CCS(C)(=O)=O)C[C@@H]1NC(=O)Cn1cc(C)cn1 | -6.99
CC(=O)N1C[C@H]2CNC[C@@]2(C(=O)NCCOc2ccccc2F)C1 | 0.818
O=C(CCc1nc2ccccc2[nH]1)NC1CCOC2(CCOCC2)C1 (stereo not given) | 20.1

Structure (SMILES) | cytotoxicity at 70.5 h [%]
CSc1ncc(C(=O)N2C[C@H]3CC[C@@H]2CN(c2ncccn2)C3)cn1 | 24.3
COc1ccc(C(=O)N2C[C@@H](C(=O)O)[C@H](c3ccccc3)C2)c(C)c1 | 11.5
CCNc1ncc(C)c(-c2cnn(C)c2)n1 | -13.2
c1ccc(-n2cnnc2CCCN2CCOCC2)cc1 | -2.59
Cc1n[nH]c(C)c1CCCN(C)c1cc(N(C)C)ncn1 | 6.66
Cc1csc(N2CCC(CCN3CCCC3=O)CC2)n1 | -14.3
Nc1cc(-c2cc(C(=O)O)ccc2Cl)c2cc[nH]c2n1 | -8.39
CCOc1ccc(C2CC(=O)NCc3nc(N)sc32)cc1CO (stereo not given) | -6.2
Cc1cc(C[C@@H]2COC[C@@H]2NC(=O)CN2CCc3ccccc3C2)on1 | 8.76
CCCc1nc(N[C@H]2COC[C@@H]2N2CCCC2)c2cnn(C)c2n1 | -7.83
CCOc1cc(Cl)c(CN2CCC3(CCCNC3=O)C2)cc1OC (stereo not given) | -5.69
CCn1c(C2CCN(C(=O)c3ccc4cc[nH]c4c3)CC2)n[nH]c1=O | 9.25
Cn1cc(CN2CCCC(CCc3ccc(F)cc3F)C2)cn1 (stereo not given) | -3.89
O=C(c1ccon1)N1CCc2ncnc(NCc3cccnc3)c2CC1 | -5.39
CCCN1CCN(C(=O)c2cnc(C)nc2)[C@H]2CS(=O)(=O)C[C@H]21 | -0.0232
COCCN1CC(=O)N2CC[C@@H](O)C[C@H]2C1=O | 28.2
O=C(c1ccoc1)N1CCCN(CC2CCOc3ccccc3C2)CC1 (stereo not given) | 18.3
Cc1n[nH]c(C)c1CN1CC[C@@H]2[C@@H](CCC(=O)N2CCc2c[nH]cn2)C1 | 1.53
CCCc1nnc(N2CCN(Cc3ccccc3OC)CC2)o1 | 23.6
CCCn1cnnc1CNC(=O)CC1C(=O)NCCN1C(C)C (stereo not given) | 10.7
Cc1nc(CN(CCc2ccccc2)C2CCN(C)CC2)no1 | -10.3
Cc1n[nH]c(C)c1CNC(=O)c1cn(CCC2CCCCN2)nn1 (stereo not given) | -1.34

Structure (SMILES) | cytotoxicity at 70.5 h [%]
CC(C)N(C)CCC(=O)N1CCCC(c2ccc(C(=O)O)cc2)C1 (stereo not given) | -7.94
O=C(O)[C@]12CCCN(Cc3ccccn3)[C@@H]1CCN(c1cnccn1)C2 | -3.65
CC(C)Cc1cc(CNC(=O)C2CCCN(C(=O)N(C)C)C2)no1 (stereo not given) | -2.31
CCSCC(C)NCc1nn(C)c2ccc(C)cc12 (stereo not given) | -5.67
CN(CCc1ccccn1)[C@@H]1CCN(c2cccc(C#N)n2)C[C@H]1O | 0.836
CCc1cc(N[C@@H](CC(C)C)C(N)=O)n2nc(C)c(C)c2n1 | -8.65
COc1cnc(N2CCCC(c3ncc[nH]3)C2)nc1 (stereo not given) | -3.19
O=C(CCN1CCOC(C(F)(F)F)C1)NCc1ccccc1Cl (stereo not given) | 15.4
Cc1nn(C)c2nc(N3CCCCC3c3nccs3)sc12 (stereo not given) | 5.1
COCc1cc(N2CCOC(c3ccc(F)cc3)C2)ncn1 (stereo not given) | -14.9
Cc1ccsc1[C@@H]1CCN(C(=O)CCc2nc3ccccc3[nH]2)C[C@H]1O | 5.42
CC(=O)Cc1c(C)nn(-c2cncc(N)c2)c1C | -1.56
CCC(NC(=O)CC1CCN(CC)CC1)c1cn2cccnc2n1 (stereo not given) | -5.63
CSCC(=O)N[C@H]1CC[C@H](Nc2nccc(-c3cccnc3)n2)C1 | 16.3
Cn1ccnc1CN1CCC(CCC(=O)Nc2ccccc2Cl)CC1 | -2.64
Fc1cccc(OC2CCN(CCn3cc4ccccc4n3)CC2)c1 | -21.6
N#Cc1cc2c(=O)n(CC(O)Cc3ccccc3)ccc2[nH]c1=O (stereo not given) | -13.6
CCNC(=O)[C@@H]1C[C@@H](n2cc(CC3CCCCC3)nn2)CN1 | -9.79
CN(Cc1ccncn1)C(=O)C1(Oc2ccc(Cl)cc2)CCNCC1 | -4.8
Cc1cnccc1-n1nc(C(C)C)nc1CCc1cnccn1 | -19.8
COCc1noc(-c2ccc(N3CCCC3c3ccc(F)cc3)nc2)n1 (stereo not given) | -3.49
CC(Cn1cncn1)Nc1ccc(-c2nccn2C)nn1 (stereo not given) | -7.86

Structure (SMILES) | cytotoxicity at 70.5 h [%]
CCOc1ccc(C(=O)CCC(=O)N(C)Cc2noc(C)n2)cc1C | -6.08
CNc1cc(C)nc(N2C[C@H](C3CC3)[C@@H](N)C2)n1 | 6.57
O=C(c1cccnc1N1CCOC(c2ccc(F)cc2)C1)N1CCCC1 (stereo not given) | -14.7
CCC(O)Cn1nc(CCSC)nc1-c1ccc2[nH]ccc2c1 (stereo not given) | 1.48
CNC(=O)CN(C)c1nc(-c2ccc(C(N)=O)cc2)nc2c1CCNC2 | -0.358
N#Cc1cccnc1Oc1cc(F)c(CN2CCCC2)c(Cl)c1 | -1.54
COCCNc1nc2c(c(NCc3cnc(C)cn3)n1)CCNCC2 | -4.71
CCCC1(CO)CCCN(Cc2ncccn2)C1 (stereo not given) | -5.25
CCCSCC(=O)N1CCN(c2ccc(OC)cc2)CC1C (stereo not given) | -2.57
O=C(c1cc[nH]n1)N1CCc2ncnc(NCc3ccccn3)c2CC1 | -8.31
CSCCc1n[nH]c2c1CN(S(=O)(=O)c1cn(C)c(C)n1)CC2 | -4.85
O=C(CCc1ccsc1)N1CCC(n2cc(CO)nn2)CC1 | -13.1
Cn1ccnc1SCCNc1nccc(C(F)(F)F)n1 | 16
Fc1cc(Cl)cnc1N1CCCC(c2nccn2Cc2ccncc2)C1 (stereo not given) | -14
c1cnnc(N2CCC(c3nnc(Cn4ccnc4)n3C3CC3)CC2)c1 | -4.27
O=C(COCC1CCCCO1)N1CCN(Cc2ccccc2F)C(=O)C1 (stereo not given) | -1.62
CN(CCCC1CCCC1)C(=O)c1cc(CN2CCC(O)CC2)on1 | 10.4
COCC1(CNC(=O)[C@@]23CNC[C@@H]2CN(C2CCCC2)C3)CC1 | -3.2
CN(C)CC1(O)CCCN(Cc2ccccc2OCC(=O)N(C)C)C1 (stereo not given) | 2.4
Cc1nc(N2C[C@H]3CC[C@@H](C2)N3)nc2cc(S(C)(=O)=O)ccc12 | -2.58
CCn1nc(C)c(NC(=O)CN2CC[C@H](CO)[C@@H](O)C2)c1C | -11.7
COc1ccc(CCC(=O)N2CCNCC2C(=O)N2CCOCC2)cc1 (stereo not given) | -7.95

Structure (SMILES) | cytotoxicity at 70.5 h [%]
CNC(=O)C(C)(C)NC(=O)c1cc(COc2cccc(C(C)=O)c2)[nH]n1 | -6.29
Cc1cccc(OC2CCN(Cc3ncc[nH]3)CC2)c1 | 15.5
Fc1ccccc1C(CNc1ccncn1)N1CCCC1 (stereo not given) | -8.28
Cc1ncsc1CCN(C)Cc1cc2n(n1)CCN(S(C)(=O)=O)C2 | -6.95
CCc1nc(CN(C)Cc2nc(-c3ccccc3Cl)oc2C)no1 | -14.3
COCCN(C)C[C@@H]1CN(C(=O)c2c(F)ccc(OC)c2F)C[C@@H]1CO | 47.7
O=C(CSc1ccccn1)N1CCN(CCO)[C@@H]2CS(=O)(=O)C[C@@H]21 | 2.3
CC(C)[C@@H]1CN(C(=O)CN(C)Cc2ccccc2)C[C@H]1C(=O)O | -6.53
COc1ccccc1OC1CCN(C(=O)CCCn2ccnc2)CC1 | -6.19
CCN(CC1CCOCC1)C(=O)Cn1cccc(C(F)(F)F)c1=O | -7.19
CSCc1noc(CNC(=O)[C@H]2CNC[C@@H](C(=O)N3CCCC3)C2)n1 | -14.4
CN(Cc1cccc2cnccc12)C(=O)CCc1n[nH]c2c1CCCC2 | -9.31
CC(C)c1ncc(-c2cc(C3CCC3)nc(N)c2C#N)cn1 | -8.31
Fc1cnc(N2CCN(Cc3ccc(-c4cc[nH]n4)o3)CC2)nc1 | -3.42
Cc1nn(C)c(Oc2ccc(Cl)cc2)c1CN1CCOC(CN)C1 (stereo not given) | -2.25
O=C(c1cc[nH]n1)N1CCC(c2nccn2Cc2ccncc2)CC1 | 0.529
CC(C)CN1C(=O)CC[C@H]2CN(C(=O)c3ncc[nH]3)CC[C@H]21 | -0.867
CO[C@@]1(C)C[C@@H](O)C12CCN(C(=O)c1ccccc1C(C)=O)CC2 | -7.26
C=C(C)COc1ccccc1NC(=O)N1CCCCC1CO (stereo not given) | 4.81
COC(=O)[C@H](CSC)Nc1nc(C2CCCC2)nc2c1cnn2C | -8.48
COC(C)(C)CC(C)NCc1cc(-c2ccco2)on1 (stereo not given) | -11.4
CCC[C@H]1CN(S(=O)(=O)N(C)Cc2ccccc2)C[C@@H]1N | 1.2
